Source: PubChem BioAssay AID2060498 (Molecular Pharmacology Branch, DTP, NCI, 2025)

Tested on: 171881-019-R-J1-PDC tumor spheroids, viability
Test: Anticancer human tumor 171881-019-R-J1-PDC patient-derived invasive breast carcinoma cell line growth inhibition [GQUAD]
Details: spheroids with HUVEC and MSC; for IC50: curve of first compound; for viability, T/C: stronger effect = lower value
Outline: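 Tumor cells were grown as complex spheroids with HUVEC endothelial cells and mesenchymal stem cells as stroma. G-quadruplex stabilizers were combined with targeted agents over half-log dilutions from near the clinical Cmax, or from 10 microM.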

[1] = second compound 0.0316 µM, first compound 0.0316 µM
[2] = second compound 0.0316 µM, first compound 0.1 µM
[3] = second compound 0.0316 µM, first compound 0.316 µM
[4] = second compound 0.0316 µM, first compound 1 µM
[5] = second compound 0.0316 µM, first compound 3.16 µM
[6] = second compound 0.0316 µM, first compound 10 µM
[7] = second compound 0.1 µM, first compound 0.0316 µM
[8] = second compound 0.1 µM, first compound 0.1 µM
[9] = second compound 0.1 µM, first compound 0.316 µM
[10] = second compound 0.1 µM, first compound 1 µM
[11] = second compound 0.1 µM, first compound 3.16 µM
[12] = second compound 0.1 µM, first compound 10 µM
[13] = second compound 0.316 µM, first compound 0.0316 µM
[14] = second compound 0.316 µM, first compound 0.1 µM
[15] = second compound 0.316 µM, first compound 0.316 µM
[16] = second compound 0.316 µM, first compound 1 µM
[17] = second compound 0.316 µM, first compound 3.16 µM
[18] = second compound 0.316 µM, first compound 10 µM
[19] = second compound 1 µM, first compound 0.0316 µM
[20] = second compound 1 µM, first compound 0.1 µM
[21] = second compound 1 µM, first compound 0.316 µM
[22] = second compound 1 µM, first compound 1 µM
[23] = second compound 1 µM, first compound 3.16 µM
[24] = second compound 1 µM, first compound 10 µM
[25] = second compound 3.16 µM, first compound 0.0316 µM
[26] = second compound 3.16 µM, first compound 0.1 µM
[27] = second compound 3.16 µM, first compound 0.316 µM
[28] = second compound 3.16 µM, first compound 1 µM
[29] = second compound 3.16 µM, first compound 3.16 µM
[30] = second compound 3.16 µM, first compound 10 µM
[31] = second compound 10 µM, first compound 0.0316 µM
[32] = second compound 10 µM, first compound 0.1 µM
[33] = second compound 10 µM, first compound 0.316 µM
[34] = second compound 10 µM, first compound 1 µM
[35] = second compound 10 µM, first compound 3.16 µM
[36] = second compound 10 µM, first compound 10 µM
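Further: spheroids exposed to compounds for 7 days.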
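Wherever viability, T/C is given: 100% = DMSO vehicle control viability.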

CC(C)n1c(=O)n(C)c2cnc3cc(F)c(-c4ccc(OCCCN5CCCCC5)nc4)cc3c21 + Cc1[nH]c2ccc(F)cc2c1-c1nc2c3cccnc3c3ncccc3c2[nH]1
IC50 (second compound 0.0316 µM): 3.36 µM | IC50 (second compound 0.1 µM): 3.35 µM | IC50 (second compound 0.316 µM): 2.42 µM | IC50 (second compound 1 µM): 2.31 µM | IC50 (second compound 3.16 µM): < 0.0316 µM | IC50 (second compound 10 µM): 0.362 µM | viability, T/C [1]: 103% | viability, T/C [2]: 94.3% | viability, T/C [3]: 95.4% | viability, T/C [4]: 84.7% | viability, T/C [5]: 51.1% | viability, T/C [6]: 22.8% | viability, T/C [7]: 97.3% | viability, T/C [8]: 104% | viability, T/C [9]: 93.4% | viability, T/C [10]: 79.8% | viability, T/C [11]: 51.7% | viability, T/C [12]: 23.8% | viability, T/C [13]: 95.9% | viability, T/C [14]: 93.2% | viability, T/C [15]: 64.5% | viability, T/C [16]: 67.8% | viability, T/C [17]: 50% | viability, T/C [18]: 21.9% | viability, T/C [19]: 89.7% | viability, T/C [20]: 75.5% | viability, T/C [21]: 84.8% | viability, T/C [22]: 68% | viability, T/C [23]: 43.2% | viability, T/C [24]: 26.9% | viability, T/C [25]: 28.7% | viability, T/C [26]: 29.2% | viability, T/C [27]: 23.4% | viability, T/C [28]: 23.3% | viability, T/C [29]: 19.1% | viability, T/C [30]: 12% | viability, T/C [31]: 65.7% | viability, T/C [32]: 49.8% | viability, T/C [33]: 52.4% | viability, T/C [34]: 43.4% | viability, T/C [35]: 34.3% | viability, T/C [36]: 16.5%

CC1COCCN1c1cc(-c2ccnn2C)c2ccnc(-c3ccn[nH]3)c2n1 (stereo not drawn) + Cc1[nH]c2ccc(F)cc2c1-c1nc2c3cccnc3c3ncccc3c2[nH]1
IC50 (second compound 0.0316 µM): 0.0648 µM | IC50 (second compound 0.1 µM): 0.0623 µM | IC50 (second compound 0.316 µM): 0.0606 µM | IC50 (second compound 1 µM): 0.0426 µM | IC50 (second compound 3.16 µM): < 0.0316 µM | IC50 (second compound 10 µM): < 0.0316 µM | viability, T/C [1]: 80% | viability, T/C [2]: 31.4% | viability, T/C [3]: 14.5% | viability, T/C [4]: 8.57% | viability, T/C [5]: 5.08% | viability, T/C [6]: 5.43% | viability, T/C [7]: 71.2% | viability, T/C [8]: 35.2% | viability, T/C [9]: 15.3% | viability, T/C [10]: 8.2% | viability, T/C [11]: 5.64% | viability, T/C [12]: 5.65% | viability, T/C [13]: 74% | viability, T/C [14]: 31% | viability, T/C [15]: 16.2% | viability, T/C [16]: 7.52% | viability, T/C [17]: 5.84% | viability, T/C [18]: 5.85% | viability, T/C [19]: 59% | viability, T/C [20]: 24.8% | viability, T/C [21]: 14.6% | viability, T/C [22]: 9.37% | viability, T/C [23]: 6.91% | viability, T/C [24]: 6.37% | viability, T/C [25]: 16.6% | viability, T/C [26]: 12.9% | viability, T/C [27]: 10.5% | viability, T/C [28]: 6.96% | viability, T/C [29]: 5.31% | viability, T/C [30]: 4.34% | viability, T/C [31]: 18% | viability, T/C [32]: 16.2% | viability, T/C [33]: 11.8% | viability, T/C [34]: 8.67% | viability, T/C [35]: 5.67% | viability, T/C [36]: 5.17%

CC1COCCN1c1cc(C2(O)CC3CCC(C2)O3)c2cnn(-c3ccn[nH]3)c2n1 (stereo not drawn) + Cc1[nH]c2ccc(F)cc2c1-c1nc2c3cccnc3c3ncccc3c2[nH]1
IC50 (second compound 0.0316 µM): 0.0345 µM | IC50 (second compound 0.1 µM): 0.0381 µM | IC50 (second compound 0.316 µM): 0.0338 µM | IC50 (second compound 1 µM): < 0.0316 µM | IC50 (second compound 3.16 µM): < 0.0316 µM | IC50 (second compound 10 µM): < 0.0316 µM | viability, T/C [1]: 52.8% | viability, T/C [2]: 20.5% | viability, T/C [3]: 10.3% | viability, T/C [4]: 5.52% | viability, T/C [5]: 4.37% | viability, T/C [6]: 4.08% | viability, T/C [7]: 55.6% | viability, T/C [8]: 20.6% | viability, T/C [9]: 9.69% | viability, T/C [10]: 5.6% | viability, T/C [11]: 3.81% | viability, T/C [12]: 3.56% | viability, T/C [13]: 52.1% | viability, T/C [14]: 20.3% | viability, T/C [15]: 9.82% | viability, T/C [16]: 5.18% | viability, T/C [17]: 4.67% | viability, T/C [18]: 3.78% | viability, T/C [19]: 36.9% | viability, T/C [20]: 15.5% | viability, T/C [21]: 9.46% | viability, T/C [22]: 5.53% | viability, T/C [23]: 5.14% | viability, T/C [24]: 3.53% | viability, T/C [25]: 15.7% | viability, T/C [26]: 10.5% | viability, T/C [27]: 6.92% | viability, T/C [28]: 4.31% | viability, T/C [29]: 4.06% | viability, T/C [30]: 1.96% | viability, T/C [31]: 14.8% | viability, T/C [32]: 12.1% | viability, T/C [33]: 7.38% | viability, T/C [34]: 5.1% | viability, T/C [35]: 4.66% | viability, T/C [36]: 3.28%

COc1ccc([C@@H](O)c2cc(-c3ncnc4cc(N5CCOCC5)ccc34)c(F)cc2Cl)nn1 + Cc1[nH]c2ccc(F)cc2c1-c1nc2c3cccnc3c3ncccc3c2[nH]1
IC50 (second compound 0.0316 µM): 0.74 µM | IC50 (second compound 0.1 µM): 0.756 µM | IC50 (second compound 0.316 µM): 0.573 µM | IC50 (second compound 1 µM): 0.429 µM | IC50 (second compound 3.16 µM): < 0.0316 µM | IC50 (second compound 10 µM): < 0.0316 µM | viability, T/C [1]: 107% | viability, T/C [2]: 81.3% | viability, T/C [3]: 74.5% | viability, T/C [4]: 45% | viability, T/C [5]: 14.7% | viability, T/C [6]: 5.38% | viability, T/C [7]: 87.2% | viability, T/C [8]: 84.5% | viability, T/C [9]: 70.1% | viability, T/C [10]: 44.6% | viability, T/C [11]: 14% | viability, T/C [12]: 5.6% | viability, T/C [13]: 85.6% | viability, T/C [14]: 90.2% | viability, T/C [15]: 56.5% | viability, T/C [16]: 41% | viability, T/C [17]: 15.5% | viability, T/C [18]: 5.95% | viability, T/C [19]: 94.2% | viability, T/C [20]: 67% | viability, T/C [21]: 64.4% | viability, T/C [22]: 32.3% | viability, T/C [23]: 12.2% | viability, T/C [24]: 6.67% | viability, T/C [25]: 28.9% | viability, T/C [26]: 15.3% | viability, T/C [27]: 14.5% | viability, T/C [28]: 9.07% | viability, T/C [29]: 8.31% | viability, T/C [30]: 4.66% | viability, T/C [31]: 37.8% | viability, T/C [32]: 45.4% | viability, T/C [33]: 26.6% | viability, T/C [34]: 17.3% | viability, T/C [35]: 9.52% | viability, T/C [36]: 5.39%
